13 molecules from ChEMBL document CHEMBL5360651, “Progress on the Pharmacological Targeting of Janus Pseudokinases” (J Med Chem, 2023) can be followed below.

One may read the IC50 as the concentration that inhibits the measured activity by half. A word on the solubility: it is how much of the substance goes into solution per volume. Low readings indicate little dissolved substance, high ones much dissolved substance. As a reminder, the half-life is the time in which the quantity being followed falls by half. Lower therefore signals rapid decline. By inhibition is commonly meant the change of the read-out against control, counted positive when it falls. Broadly, the Kd is the free concentration of one partner at which half of the binding sites on the other are occupied at equilibrium, for simple one-to-one binding.

The target of data set [1] is T1, Tyrosine-protein kinase JAK3 (Homo sapiens, UniProt P52333).
T1 sequence (P52333 whole entry): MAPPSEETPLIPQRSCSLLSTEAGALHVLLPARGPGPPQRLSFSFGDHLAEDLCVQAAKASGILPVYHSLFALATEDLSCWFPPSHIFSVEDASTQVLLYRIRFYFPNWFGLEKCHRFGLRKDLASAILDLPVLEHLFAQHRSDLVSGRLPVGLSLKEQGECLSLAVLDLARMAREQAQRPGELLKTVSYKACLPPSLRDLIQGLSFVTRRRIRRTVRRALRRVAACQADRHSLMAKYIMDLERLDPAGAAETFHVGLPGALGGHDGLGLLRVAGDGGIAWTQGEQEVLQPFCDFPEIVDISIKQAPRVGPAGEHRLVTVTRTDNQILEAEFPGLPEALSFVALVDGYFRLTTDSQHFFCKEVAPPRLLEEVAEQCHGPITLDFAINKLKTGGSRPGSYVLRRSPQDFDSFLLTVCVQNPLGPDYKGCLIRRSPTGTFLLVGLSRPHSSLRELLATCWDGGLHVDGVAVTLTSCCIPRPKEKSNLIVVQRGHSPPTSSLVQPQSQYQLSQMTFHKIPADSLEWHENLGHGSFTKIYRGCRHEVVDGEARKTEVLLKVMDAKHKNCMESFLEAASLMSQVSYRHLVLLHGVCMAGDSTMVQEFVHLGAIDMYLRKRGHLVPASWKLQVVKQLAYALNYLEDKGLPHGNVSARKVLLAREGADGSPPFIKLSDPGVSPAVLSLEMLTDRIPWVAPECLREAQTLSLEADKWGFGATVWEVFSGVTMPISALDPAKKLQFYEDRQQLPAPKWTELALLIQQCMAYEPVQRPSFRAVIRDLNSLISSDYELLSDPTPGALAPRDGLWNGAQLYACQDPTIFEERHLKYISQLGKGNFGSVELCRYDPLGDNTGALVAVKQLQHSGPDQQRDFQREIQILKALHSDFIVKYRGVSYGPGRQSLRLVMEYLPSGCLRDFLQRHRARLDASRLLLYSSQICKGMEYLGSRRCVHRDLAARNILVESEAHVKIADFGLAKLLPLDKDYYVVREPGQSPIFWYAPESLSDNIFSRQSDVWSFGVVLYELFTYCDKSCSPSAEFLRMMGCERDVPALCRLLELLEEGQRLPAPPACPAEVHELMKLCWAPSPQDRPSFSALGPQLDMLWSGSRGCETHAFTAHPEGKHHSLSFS
In words: Inhibition of JAK3 signaling pathway in human PBMC cells assessed as reduction of IL-2 induced STAT5 phosphorylation. The data set is classed as cell-based.

The nature of data set [2]: Solubility of compound at pH 6.5. Type of data set: physicochemical. To be noted: buffer.
A short description of data set [3]: Half life in human liver microsomes. The data set is classed as ADME, Microsome.
The target in data set [4] is T2, Inhibitor of nuclear factor kappa-B kinase subunit beta (Homo sapiens) (UniProt O14920).
T2 sequence (whole entry): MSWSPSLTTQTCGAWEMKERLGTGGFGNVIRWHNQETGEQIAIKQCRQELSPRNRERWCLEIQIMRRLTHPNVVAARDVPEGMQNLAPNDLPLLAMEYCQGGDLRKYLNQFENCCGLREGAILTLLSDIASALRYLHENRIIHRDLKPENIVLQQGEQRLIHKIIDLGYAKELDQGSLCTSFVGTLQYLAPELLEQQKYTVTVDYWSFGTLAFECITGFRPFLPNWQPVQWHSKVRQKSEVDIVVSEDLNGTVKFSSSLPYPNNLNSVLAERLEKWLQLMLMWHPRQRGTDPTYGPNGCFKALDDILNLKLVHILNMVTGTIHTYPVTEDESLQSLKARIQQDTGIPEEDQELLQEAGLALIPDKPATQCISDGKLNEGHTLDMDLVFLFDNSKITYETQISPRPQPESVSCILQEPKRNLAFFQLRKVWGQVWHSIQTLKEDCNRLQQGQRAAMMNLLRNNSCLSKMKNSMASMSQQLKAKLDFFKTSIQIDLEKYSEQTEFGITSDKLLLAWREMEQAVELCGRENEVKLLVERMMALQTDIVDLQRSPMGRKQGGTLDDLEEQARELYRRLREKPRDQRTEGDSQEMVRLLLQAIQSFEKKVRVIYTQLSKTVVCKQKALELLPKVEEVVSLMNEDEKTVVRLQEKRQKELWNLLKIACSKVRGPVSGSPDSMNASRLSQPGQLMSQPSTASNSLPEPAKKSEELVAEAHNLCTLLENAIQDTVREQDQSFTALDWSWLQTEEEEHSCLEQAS
Briefly: Inhibition of IKKbeta (unknown origin) at 1 uM relative to control.

In data set [5] the target is T3, Non-receptor tyrosine-protein kinase TYK2 (Homo sapiens, UniProt P29597). In words: Inhibition of human recombinant N-terminal His-tagged TYK2 (575 to 869 residues) expressed in baculovirus infected Sf9 cells at 1 uM incubated for 30 mins by scintillation method.
T3 sequence (P29597 whole entry, the tested form may be a part): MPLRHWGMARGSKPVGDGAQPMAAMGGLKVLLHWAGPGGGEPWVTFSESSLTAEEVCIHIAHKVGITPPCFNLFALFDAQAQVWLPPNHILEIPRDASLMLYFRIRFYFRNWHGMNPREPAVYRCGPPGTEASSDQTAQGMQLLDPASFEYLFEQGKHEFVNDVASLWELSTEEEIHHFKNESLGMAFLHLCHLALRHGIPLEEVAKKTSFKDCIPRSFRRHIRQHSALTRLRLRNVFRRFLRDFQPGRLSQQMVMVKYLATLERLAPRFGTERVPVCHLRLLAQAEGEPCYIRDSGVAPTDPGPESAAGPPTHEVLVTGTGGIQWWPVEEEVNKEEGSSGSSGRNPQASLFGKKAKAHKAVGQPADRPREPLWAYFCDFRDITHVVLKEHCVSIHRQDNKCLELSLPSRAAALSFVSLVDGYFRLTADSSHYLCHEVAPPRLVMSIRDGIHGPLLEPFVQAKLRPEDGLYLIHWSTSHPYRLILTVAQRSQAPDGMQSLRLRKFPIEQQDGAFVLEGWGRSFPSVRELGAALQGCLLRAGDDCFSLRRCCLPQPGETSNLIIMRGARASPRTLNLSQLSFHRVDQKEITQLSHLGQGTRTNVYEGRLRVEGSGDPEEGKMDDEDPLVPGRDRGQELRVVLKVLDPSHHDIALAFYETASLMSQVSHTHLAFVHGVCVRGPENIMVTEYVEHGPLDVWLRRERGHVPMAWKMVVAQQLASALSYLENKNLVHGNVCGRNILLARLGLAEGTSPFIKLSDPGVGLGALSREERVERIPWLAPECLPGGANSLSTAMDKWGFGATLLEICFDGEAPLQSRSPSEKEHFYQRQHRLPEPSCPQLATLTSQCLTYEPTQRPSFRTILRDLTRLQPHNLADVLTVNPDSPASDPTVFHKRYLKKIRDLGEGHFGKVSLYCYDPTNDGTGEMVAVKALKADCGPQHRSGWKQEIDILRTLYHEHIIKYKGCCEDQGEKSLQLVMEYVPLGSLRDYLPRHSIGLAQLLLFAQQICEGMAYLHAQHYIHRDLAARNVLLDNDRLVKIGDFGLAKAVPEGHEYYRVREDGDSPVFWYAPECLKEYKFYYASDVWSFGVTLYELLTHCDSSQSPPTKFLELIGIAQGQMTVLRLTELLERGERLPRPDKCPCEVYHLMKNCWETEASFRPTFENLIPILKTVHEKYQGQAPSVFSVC
Data set [6] has as its target T4, Tyrosine-protein kinase JAK1 (Homo sapiens, UniProt P23458).
Data set [7] addresses T4, Tyrosine-protein kinase JAK1. The source holds these as a separate data set.
Data set [8] can be described thus: Inhibition of JAK1 JH2 (unknown origin). Also noted: species or system Homo sapiens.
The target in data set [9] is T3, Non-receptor tyrosine-protein kinase TYK2. The data set is classed as cell-based, Sf9.
Data set [10] concerns the target T5, Tyrosine-protein kinase JAK2 (Homo sapiens, UniProt O60674).
Data set [11] addresses T3, Non-receptor tyrosine-protein kinase TYK2. Type of data set: cell-based, Sf9. This is another data set of the same source.
Data set [12] shares this target. In words: Inhibition of TYK2 JH2 in human KIT225 cells assessed as reduction of IFNalpha induced STAT1 phosphorylation by AlphaLISA assay. The data set is classed as cell-based. In general terms: Bead proximity is the source of the signal in Alpha formats.
Data set [13] has the same target. In words: Inhibition of TYK2 signalling pathway in human PBMC cells assessed as IFN alpha induced p-STAT1 level. The data set is classed as cell-based.
The target is the same in data set [14]. In words: Inhibition of TYK2 signalling pathway in human PBMC cells assessed as IFN alpha induced p-STAT3 level. Type of data set: cell-based.
The target in data set [15] is Tyrosine-protein kinase JAK2 (Homo sapiens, UniProt O60674, V617F). In words: Binding affinity to JAK2 V617F mutant (unknown origin) assessed as dissociation constant.
Sequence of Tyrosine-protein kinase JAK2 (Homo sapiens, UniProt O60674, V617F) (O60674 whole entry V617F): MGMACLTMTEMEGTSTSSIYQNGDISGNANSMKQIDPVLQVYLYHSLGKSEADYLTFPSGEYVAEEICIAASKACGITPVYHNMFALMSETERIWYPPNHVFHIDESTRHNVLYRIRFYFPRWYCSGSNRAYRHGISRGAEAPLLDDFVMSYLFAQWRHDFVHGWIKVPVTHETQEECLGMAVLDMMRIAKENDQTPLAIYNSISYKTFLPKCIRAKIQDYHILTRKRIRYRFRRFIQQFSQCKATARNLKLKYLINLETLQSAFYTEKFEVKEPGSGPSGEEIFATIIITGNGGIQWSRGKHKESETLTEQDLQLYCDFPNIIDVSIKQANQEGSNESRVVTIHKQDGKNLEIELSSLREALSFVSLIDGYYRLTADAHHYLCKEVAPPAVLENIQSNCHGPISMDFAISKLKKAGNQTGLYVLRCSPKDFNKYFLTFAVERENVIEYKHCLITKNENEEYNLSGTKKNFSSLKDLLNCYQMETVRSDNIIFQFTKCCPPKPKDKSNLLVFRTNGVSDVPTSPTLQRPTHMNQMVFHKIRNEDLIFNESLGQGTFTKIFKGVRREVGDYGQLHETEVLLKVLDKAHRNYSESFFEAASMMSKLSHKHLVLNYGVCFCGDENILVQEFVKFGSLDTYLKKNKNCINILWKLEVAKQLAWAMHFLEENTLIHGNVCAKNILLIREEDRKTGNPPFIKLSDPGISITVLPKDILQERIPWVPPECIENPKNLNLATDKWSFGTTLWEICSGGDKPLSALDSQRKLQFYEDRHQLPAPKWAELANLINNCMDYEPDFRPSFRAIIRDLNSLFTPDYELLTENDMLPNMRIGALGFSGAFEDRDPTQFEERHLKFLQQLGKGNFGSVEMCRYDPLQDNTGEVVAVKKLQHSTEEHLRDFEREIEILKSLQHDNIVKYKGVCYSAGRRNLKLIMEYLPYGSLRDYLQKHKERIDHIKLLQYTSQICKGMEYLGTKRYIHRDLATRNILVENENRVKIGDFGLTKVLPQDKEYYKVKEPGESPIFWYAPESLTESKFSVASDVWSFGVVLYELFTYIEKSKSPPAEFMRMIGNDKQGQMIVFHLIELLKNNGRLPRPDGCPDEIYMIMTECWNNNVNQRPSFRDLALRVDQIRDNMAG
For data set [16], the target named is T5, Tyrosine-protein kinase JAK2. In words: Binding affinity to wild type JAK2 JH2 (unknown origin).
A short description of data set [17]: Inhibition of PDE4 (unknown origin) by HTRF assay. Also noted: species or system Homo sapiens. (Time-resolved FRET reads energy transfer from a long-lived donor to a nearby acceptor.)
For data set [18], the target named is Voltage-gated inwardly rectifying potassium channel KCNH2 (Homo sapiens, UniProt Q12809). Briefly: Inhibition of hERG by fluorescence polarization method. Type of data set: toxicity.
Sequence of Voltage-gated inwardly rectifying potassium channel KCNH2 (Q12809 whole entry): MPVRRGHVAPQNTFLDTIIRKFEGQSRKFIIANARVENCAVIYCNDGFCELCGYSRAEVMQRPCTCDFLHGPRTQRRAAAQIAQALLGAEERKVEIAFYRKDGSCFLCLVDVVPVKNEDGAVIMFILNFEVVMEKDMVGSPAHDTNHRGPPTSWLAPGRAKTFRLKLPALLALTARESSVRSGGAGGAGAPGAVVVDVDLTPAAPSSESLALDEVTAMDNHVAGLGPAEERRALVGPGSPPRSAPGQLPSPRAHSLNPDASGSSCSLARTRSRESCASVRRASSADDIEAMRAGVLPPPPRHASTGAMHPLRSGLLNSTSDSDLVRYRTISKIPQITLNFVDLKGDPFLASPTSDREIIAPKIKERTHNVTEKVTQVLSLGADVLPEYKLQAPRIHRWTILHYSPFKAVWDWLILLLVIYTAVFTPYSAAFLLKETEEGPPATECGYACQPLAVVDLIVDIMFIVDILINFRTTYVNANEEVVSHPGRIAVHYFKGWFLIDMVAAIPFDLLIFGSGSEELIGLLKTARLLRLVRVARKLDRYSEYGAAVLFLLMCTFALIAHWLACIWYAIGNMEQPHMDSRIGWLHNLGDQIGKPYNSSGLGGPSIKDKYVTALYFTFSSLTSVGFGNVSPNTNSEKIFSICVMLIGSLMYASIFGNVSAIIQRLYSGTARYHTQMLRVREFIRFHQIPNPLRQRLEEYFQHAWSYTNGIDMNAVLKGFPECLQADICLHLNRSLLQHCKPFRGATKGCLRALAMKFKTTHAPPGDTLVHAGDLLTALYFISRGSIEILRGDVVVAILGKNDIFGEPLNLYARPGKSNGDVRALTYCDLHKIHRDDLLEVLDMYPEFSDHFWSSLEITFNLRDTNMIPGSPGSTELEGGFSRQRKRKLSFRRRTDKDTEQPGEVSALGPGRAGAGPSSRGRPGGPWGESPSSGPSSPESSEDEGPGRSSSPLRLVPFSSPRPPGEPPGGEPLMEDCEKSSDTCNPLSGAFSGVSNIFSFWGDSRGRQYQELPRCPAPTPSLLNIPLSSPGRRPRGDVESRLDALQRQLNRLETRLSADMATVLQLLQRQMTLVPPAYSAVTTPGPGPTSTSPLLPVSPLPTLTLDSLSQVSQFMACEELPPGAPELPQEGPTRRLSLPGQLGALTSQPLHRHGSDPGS

T4 sequence (P23458 whole entry): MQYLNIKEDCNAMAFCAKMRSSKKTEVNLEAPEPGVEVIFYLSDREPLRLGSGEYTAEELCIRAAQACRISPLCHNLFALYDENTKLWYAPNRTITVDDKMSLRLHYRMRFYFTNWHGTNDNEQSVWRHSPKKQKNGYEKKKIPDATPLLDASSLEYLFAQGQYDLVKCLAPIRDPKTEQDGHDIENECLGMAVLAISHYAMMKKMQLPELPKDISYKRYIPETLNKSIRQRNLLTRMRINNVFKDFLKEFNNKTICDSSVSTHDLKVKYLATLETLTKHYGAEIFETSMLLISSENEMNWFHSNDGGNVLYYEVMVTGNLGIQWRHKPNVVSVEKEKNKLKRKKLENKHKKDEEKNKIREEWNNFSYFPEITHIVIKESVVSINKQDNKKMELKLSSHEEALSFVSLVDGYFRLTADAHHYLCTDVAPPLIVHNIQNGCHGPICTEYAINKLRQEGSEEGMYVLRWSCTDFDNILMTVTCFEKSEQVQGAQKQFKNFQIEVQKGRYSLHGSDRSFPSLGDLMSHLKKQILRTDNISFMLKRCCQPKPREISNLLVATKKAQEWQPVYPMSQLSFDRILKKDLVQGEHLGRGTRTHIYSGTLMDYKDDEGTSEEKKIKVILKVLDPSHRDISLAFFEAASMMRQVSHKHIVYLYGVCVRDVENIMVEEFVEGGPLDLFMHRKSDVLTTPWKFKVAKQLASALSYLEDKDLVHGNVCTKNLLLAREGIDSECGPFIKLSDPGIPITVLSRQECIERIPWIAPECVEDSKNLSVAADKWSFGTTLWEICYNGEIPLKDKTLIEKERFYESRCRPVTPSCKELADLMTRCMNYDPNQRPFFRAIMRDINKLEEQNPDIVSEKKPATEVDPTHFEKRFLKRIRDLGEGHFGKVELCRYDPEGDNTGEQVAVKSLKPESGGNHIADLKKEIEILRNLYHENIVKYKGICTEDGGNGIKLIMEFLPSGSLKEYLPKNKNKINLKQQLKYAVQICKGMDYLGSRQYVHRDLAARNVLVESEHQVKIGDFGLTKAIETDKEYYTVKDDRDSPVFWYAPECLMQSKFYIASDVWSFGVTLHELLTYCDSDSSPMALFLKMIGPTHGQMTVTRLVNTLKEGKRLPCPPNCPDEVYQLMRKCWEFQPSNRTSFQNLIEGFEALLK
T5 sequence (O60674 whole entry): as the sequence (O60674 whole entry V617F) above, with F617V counted along it

`[2H]C([2H])([2H])NC(=O)c1nnc(NC(=O)C2CC2)cc1Nc1cccc(-c2ncn(C)n2)c1OC` [DEUCRAVACITINIB]: the half-inhibitory concentration (IC50) in [1] is 3 nM. In addition, the solubility in data set [2] was less than 1 µg/mL. The molecule further returned a half-life in [3] greater than 2 h. As to `CNc1nc2sc(-c3cccc([C@@H](C)NC(=O)c4ccccc4S(C)(=O)=O)c3)nc2c2c1ncn2C`, the inhibition in data set [4] is greater than 96%; in [5], 99%. Consider `c1nc2nc(Nc3ccc(N4CCOCC4)cc3)nc(NC3CCCCC3)c2[nH]1` [REVERSINE], for which the half-maximal inhibitory concentration (IC50) in [6] and in [7] was 350 nM throughout. In the case of `CC(C)CCN1c2nc(Nc3cc(F)c(O)c(F)c3)ncc2N(C)C(=O)C1(C)C`, in data set [8], 123 nM corresponded to half-maximal inhibition (IC50).

`O=c1cc(-c2ccccc2)nc2c(-c3cccc([N+](=O)[O-])c3)c(C(F)(F)F)[nH]n12`: the IC50 in data set [9] stood at 50000 nM; in data set [10] it was 14000 nM; in data set [11] it was 9700 nM.

Consider `CNC(=O)c1cnc(Nc2ccc(F)cn2)cc1Nc1ccccc1S(C)(=O)=O`, for which the 50% inhibitory concentration (IC50) in data set [12] turned out to be 63 nM. For the molecule `CS(=O)(=O)N1CC[C@H](C#CC(=O)N2CCC[C@@H](c3ccc(Cl)c(Cl)c3)C2)C1`, the half-inhibitory concentration (IC50) in data set [13] worked out at 32 nM; in [14], 46 nM. For the molecule `Nc1nc(CSc2nnc(NCC3CCCC3)s2)nc(Nc2ccc(F)cc2)n1`, the Kd in data set [15] was 65000 nM; in data set [16], 149000 nM. Consider `NC(=O)c1ccccc1Nc1cc(Nc2ccc(F)cn2)ncc1C(N)=O`, for which the concentration for half-maximal inhibition (IC50) in data set [12] is 37 nM; in data set [17], greater than 2000 nM.

In data set [18], `CNC(=O)c1nnc(NC(=O)C2CC2)c2[nH]c(-c3ccc(N)cc3OC)cc12` returned an IC50 greater than 30000 nM. Further, in data set [3], the half-life is greater than 2.32 h.

Turning to `O=C(Nc1c[nH]nc1-c1nc2cc(CN3CCOCC3)ccc2[nH]1)NC1CC1` [AT-9283], the midpoint of inhibition in data set [7], the IC50, lay at 60 nM.

Consider `CC(C)CCN1c2nc(Nc3cc(F)c(O)c(F)c3)ncc2N(C)C(=O)C1C` (stereo not drawn), for which inhibition in data set [8] was half-maximal at 658 nM (IC50). On to `CNC(=O)c1cnc(Nc2ccc(C#N)cn2)cc1Nc1cccc(-c2ncn(C)n2)c1OC`, for which inhibition in data set [11] was half-maximal at 0.3 nM (IC50).
